Patent publication US20140256644A1, “Treatment of Muscular Conditions and Muscular Dystrophies” (priority 2011, published 2014)
“Also recorded” adds a separate entry of the source. Where no end group is shown, it is not given here.

Tests used:
adult mdx FDB myofibers [1] = experiment: Stretch-induced ROS production (X-ROS), DCF fluorescence, 10% axial stretch (MuST); type: cell-based, mouse; conditions: adult mdx FDB fibers, 10% stretch, gp91dsTAT 2 μM, fulvene-5 5 μM, L-NAME 1 mM, colchicine, nocodozole, latrunculin A 10 μM
Experimental: (§1) After euthanasia by CO2 inhalation, flexor digitorum brevis (FDB) muscle was harvested bilaterally and incubated in DMEM with 1 μl/ml gentamicin, and 0.4% collagenase A (Roche Applied Science, Indianapolis, Ind., USA) as described. Single intact myofibers were isolated by gentle trituration. The fibers were imaged and/or fixed for immunolabeling within an 8-h period (unless indicated), thus avoiding morphological changes that can occur in FDB fibers that are cultured for a prolonged period.
All experiments were performed in custom rotating glass-bottom chamber (Four-hour Day Foundation, Towson, Md.) equipped with bath perfusion and mounted on BioRad Radiance fluorescent laser scanning confocal attached to an Olympus IX-70 inverted microscope (Olympus Corp., Centre Valley, Pa.). Cells were attached using micro-tweezers coated with the biological adhesive, MyoTak (Ionoptix, Milton, Mass.) and connected to a high-sensitivity force transducer (KG7) equipped with an anti-oscillation filter and a piezo-electric length controller (World Precision Instruments, Sarasota, Fla.). The force transducer and length controller were mounted on folded motorized micromanipulators (Siskiyou, Grants Pass, Oreg.) allowing to place the tweezers above the cell of interest. The rotating chamber, the tweezer-equipped force transducer and length controller and the micromanipulators formed the Muscle Stretch Tool (MUST).
(§2) Myofibers were attached at both ends by gently closing the MyoTak-coated tweezers without compressing the cell membrane and then lifting the cell from the bottom of the chamber. Cell sarcomere length was monitored using a High-speed Video Sarcomere Length camera (Aurora Scientific, Aurora, ON, CAN) and the voltage into the length controller was adjusted to produce a stretch equal to 10% of resting sarcomere length. The tension signal from the force transducer and positional output from the length controller were recorded at 1 kHz using a 600A data acquisition system from Aurora.
ROS was measured using 6-carboxy-2″,7″-dichlorodihydrofluorescein diacetate (DCFH-DA) (Invitrogen, Carlsbad, Calif.) in dimethyl sulfoxide (DMSO). FDB fibers were suspended in HEPES-buffered Ringer's solution containing (in mM): 140 NaCl, 4.0 KCl, 1.0 MgSO4, 5.0 NaHCO3, 10.0 glucose, 10.0 HEPES at pH 7.3 and incubated with Ringer's solution containing DCFH-DA (10 μM) for 30 minutes at room temperature. DCF-loaded cells were mounted on MUST and imaged using confocal line-scanning microscopy at 2 ms/line with very low laser intensity to prevent artifactual amplification of the signal due to light oxidation. DCF fluorescence signals were processed as described (16). The NOX2 specific inhibitor gp91dsTAT (2 μM), NOX inhibitor fulvene-5 (5 μM) and nitric oxide synthase inhibitor L-NAME (1 mM) was used to verify the source of ROS. Interrogation of cytoskeletal involvement in stretch dependent ROS or Ca^2+ influx was done with pharmacological methods.

NOX = target: T1, NOX (Homo sapiens, UniProt P04839); conditions: in muscle; apocynin or its oxidation products; cited from earlier work
T1 construct: host or cells: muscle
T1 sequence (P04839 1-570): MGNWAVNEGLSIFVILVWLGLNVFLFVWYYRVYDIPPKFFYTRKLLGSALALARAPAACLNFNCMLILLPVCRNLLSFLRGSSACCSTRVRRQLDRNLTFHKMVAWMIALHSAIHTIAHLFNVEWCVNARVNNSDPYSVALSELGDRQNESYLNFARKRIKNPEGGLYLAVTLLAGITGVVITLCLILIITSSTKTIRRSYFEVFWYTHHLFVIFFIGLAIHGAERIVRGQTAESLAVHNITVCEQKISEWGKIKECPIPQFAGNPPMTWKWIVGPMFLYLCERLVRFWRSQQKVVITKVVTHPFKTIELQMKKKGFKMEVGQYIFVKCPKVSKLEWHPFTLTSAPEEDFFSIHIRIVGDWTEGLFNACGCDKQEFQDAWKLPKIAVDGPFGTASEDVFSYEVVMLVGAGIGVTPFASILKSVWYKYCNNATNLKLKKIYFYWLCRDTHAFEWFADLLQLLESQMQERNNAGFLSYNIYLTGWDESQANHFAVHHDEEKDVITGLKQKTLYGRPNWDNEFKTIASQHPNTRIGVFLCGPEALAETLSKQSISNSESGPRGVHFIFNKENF

adult mdx mice [2] = experiment: In vivo eccentric contraction-induced injury in mdx; conditions: for eccentric contraction induced force loss: colchicine 1 mg/kg IP 4 hours or apocynin 3 mg/kg IP 3 days, 20 eccentric contractions; for eccentric contraction induced force drop (FIG. 13): dimethylaminoparthenolide 50 mg/kg via gavage per day/3 days, Gp91ds-TAT 5 ug/g body weight, 2 doses one day apart
Experimental: (§3) Anaesthetized mice (isoflurane) were placed on a thermostatically controlled table, the knee was fixed with a pin and the foot was firmly fixed to a footplate on the motor shaft. Contraction was elicited by percutaneous electrical stimulation of the sciatic nerve. Optimal isometric tetanic torque was determined with increasing current with a minimum of 30 s between each contraction to avoid fatigue. Eccentric contractions at maximal isometric torque (0.2 ms pulse train at 100 Hz) were assayed for the resistance to muscle damage.
Eccentric contractions were achieved by lengthening the muscle during maximal contraction. This was achieved by translating the footplate 30° at a velocity of 40 mm/s following the first 200 msec of the isometric contraction. This protocol consisted of 20 eccentric contractions with 1 minute pauses in between. The decrease in the peak isometric force prior to the eccentric phase was taken as an indication for muscle damage. To test the role of X-ROS in the functional status of mdx muscle, adult mdx mice were treated with either colchicine (1 mg/kg IP; 4 hours) or apocynin (3 mg/kg IP; 3 days) in vivo to reduce X-ROS signaling followed by a contraction protocol to produce mechanical stress.

adult mdx mice [3] = experiment: In vitro isometric contraction-induced injury of EDL muscle after in vivo treatment; parameters: species or system mouse; conditions: mdx mice treated in vivo (colchicine 1 mg/kg IP 4 hours; apocynin 3 mg/kg IP 3 days), 20 isometric contractions
Experimental: Following CO2 asphyxiation and cervical dislocation, single EDL muscles were surgically excised with ligatures at each tendon (5-0 silk suture) and mounted in an in vitro bath between a fixed post and force transducer (Aurora 300B-LR) operated in isometric mode. The muscle was maintained in physiological saline solution and maintained at 30° C. under aeration with 95 O2/5 CO2 (%) throughout the experiment. Resting tension, muscle length and stimulation current were iteratively adjusted for each muscle to obtain optimal twitch force. During a 5 minute equilibration, single twitches were elicited at every 30 seconds with electrical pulses (0.5 msec) through platinum electrodes running parallel to the muscle. The injury protocol used to induce a force deficit (39) consisted of 20 maximum isometric contractions (1 sec at 100 Hz) separated by 1 minute. The absolute isometric force of each muscle during the contraction protocol was normalized to the maximum isometric force (Po) produced by the muscle during the 20-contraction protocol.

wild-type (WT) mice = experiment: In vivo eccentric contraction-induced injury in wild-type mice (gastrocnemius); parameters: species or system mouse
Experimental: WT mice were treated in vivo with either vehicle, or a combination of colchicine and apocynin. Following treatment, the gastrocnemius muscle was assayed for susceptibility to in vivo eccentric contraction injury.
as §3
Eccentric contractions were achieved by lengthening the muscle during maximal contraction. This was achieved by translating the footplate 30° at a velocity of 40 mm/s following the first 200 msec of the isometric contraction. This protocol consisted of 20 eccentric contractions with 1 minute pauses in between. The decrease in the peak isometric force prior to the eccentric phase was taken as an indication for muscle damage.

wild-type FDB fibers [4] = experiment: Cytoskeletal stiffness by axial compression, atomic force microscopy; conditions: 10 μM, 2 hrs
[5] = system: microtubule network in isolated FDB myofibers; experiment: Fluorescence labeling and quantification of α-tubulin (microtubule network density); type: cell-based, mouse; conditions: for microtubule density (α-tubulin IHC): FDB fibers, colchicine 10 μM, taxol 10 μM; for microtubule density in isolated FDB myofibers: Angiotensin II treatment over 24 hrs
Experimental: Isolated intact FBDs were plated on ECM gel from Engelbreth-Holm-Swarm murine sarcoma coated imaging dishes (MatTek, Ashland, Mass.). Following treatment, plated myofibers were fixed with 2% paraformaldehyde, permeabilized with 0.1% Triton X-100 in phosphate buffered saline (PBS), blocked in 8% bovine serum albumin in PBS, and then labeled overnight with an antibody to α-tubulin conjugated to Alexa Fluor 488 (anti-mouse; Invitrogen, Carlsbad, Calif., USA). Digital images were obtained with a BioRad Radiance fluorescent laser scanning confocal attached to an Olympus IX-70 inverted microscope. Laser intensity was adjusted on a sample-to-sample basis to maximize amount of microtubules that are visualized. A 35-image Z-stack was taken at 0.5 μm interval and the most representative 9 frames were stacked together using ImageJ (NIH, USA) to form a composite image. Quantification was performed on the binary image representation of the 9-image stack. Background was subtracted uniformly and image was transformed into a binary using ImageJ unbiased binary function. A uniform region of interest was selected and mean intensity measured.

adult mdx FDB myofibers [6] = experiment: Stretch-dependent sarcolemmal Ca2+ influx, fluo-4 fluorescence rate; type: cell-based, mouse; conditions: adult mdx FDB fibers, acute stretch, GsMTx4 2.5 μM, colchicine 10 μM
Experimental: as §1, with “period. […]” for “period.”
as §2
Similar to DCF measurements, FDBs were suspended in Ringer's solution containing 5 μM fluo-4-AM (Invitrogen, Carlsbad, Ca) for 30 minutes at room temperature. […] Fluo-4 signal slopes before stretch and after were measured.

[7] = system: young wild-type and young mdx FDB muscle fibers; experiment: Stretch-induced X-ROS in young fibers after increasing microtubule density; type: cell-based, mouse; conditions: young wild-type or young mdx fibers, taxol 10 μM
Experimental: All experiments were performed in custom rotating glass-bottom chamber (Four-hour Day Foundation, Towson, Md.) equipped with bath perfusion and mounted on BioRad Radiance fluorescent laser scanning confocal attached to an Olympus IX-70 inverted microscope (Olympus Corp., Centre Valley, Pa.). Cells were attached using micro-tweezers coated with the biological adhesive, MyoTak (Ionoptix, Milton, Mass.) and connected to a high-sensitivity force transducer (KG7) equipped with an anti-oscillation filter and a piezo-electric length controller (World Precision Instruments, Sarasota, Fla.). […]
as §2
ROS was measured using 6-carboxy-2″,7″-dichlorodihydrofluorescein diacetate (DCFH-DA) (Invitrogen, Carlsbad, Calif.) in dimethyl sulfoxide (DMSO). […] DCF fluorescence signals were processed as described (16). […]

young WT muscle cells = experiment: Stretch Ca2+ entry in young fibers after increasing microtubule density; type: cell-based, mouse; conditions: young WT treated with taxol
Experimental: Similar to DCF measurements, FDBs were suspended in Ringer's solution containing 5 μM fluo-4-AM (Invitrogen, Carlsbad, Ca) for 30 minutes at room temperature. Fluo-4-loaded cells were mounted on MUST and imaged using confocal line-scanning microscopy at 2 ms/line. Fluo-4 signal slopes before stretch and after were measured.

C2C12 myotubes = experiment: Microtubule subunit content in myotubes; type: cell-based
wild-type FDB fibers [8] = experiment: Stretch activated calcium influx, Mn quench assay; conditions: parthenolide 10 uM 2 hrs, Gp91ds-TAT 1 uM 30 minutes
Piezo2 = Piezo2 (Homo sapiens, UniProt Q9H5I5); conditions: cited from earlier work
Piezo1 = conditions: cited from earlier work
Chain of Piezo1 (Q92508 whole entry, species assumed): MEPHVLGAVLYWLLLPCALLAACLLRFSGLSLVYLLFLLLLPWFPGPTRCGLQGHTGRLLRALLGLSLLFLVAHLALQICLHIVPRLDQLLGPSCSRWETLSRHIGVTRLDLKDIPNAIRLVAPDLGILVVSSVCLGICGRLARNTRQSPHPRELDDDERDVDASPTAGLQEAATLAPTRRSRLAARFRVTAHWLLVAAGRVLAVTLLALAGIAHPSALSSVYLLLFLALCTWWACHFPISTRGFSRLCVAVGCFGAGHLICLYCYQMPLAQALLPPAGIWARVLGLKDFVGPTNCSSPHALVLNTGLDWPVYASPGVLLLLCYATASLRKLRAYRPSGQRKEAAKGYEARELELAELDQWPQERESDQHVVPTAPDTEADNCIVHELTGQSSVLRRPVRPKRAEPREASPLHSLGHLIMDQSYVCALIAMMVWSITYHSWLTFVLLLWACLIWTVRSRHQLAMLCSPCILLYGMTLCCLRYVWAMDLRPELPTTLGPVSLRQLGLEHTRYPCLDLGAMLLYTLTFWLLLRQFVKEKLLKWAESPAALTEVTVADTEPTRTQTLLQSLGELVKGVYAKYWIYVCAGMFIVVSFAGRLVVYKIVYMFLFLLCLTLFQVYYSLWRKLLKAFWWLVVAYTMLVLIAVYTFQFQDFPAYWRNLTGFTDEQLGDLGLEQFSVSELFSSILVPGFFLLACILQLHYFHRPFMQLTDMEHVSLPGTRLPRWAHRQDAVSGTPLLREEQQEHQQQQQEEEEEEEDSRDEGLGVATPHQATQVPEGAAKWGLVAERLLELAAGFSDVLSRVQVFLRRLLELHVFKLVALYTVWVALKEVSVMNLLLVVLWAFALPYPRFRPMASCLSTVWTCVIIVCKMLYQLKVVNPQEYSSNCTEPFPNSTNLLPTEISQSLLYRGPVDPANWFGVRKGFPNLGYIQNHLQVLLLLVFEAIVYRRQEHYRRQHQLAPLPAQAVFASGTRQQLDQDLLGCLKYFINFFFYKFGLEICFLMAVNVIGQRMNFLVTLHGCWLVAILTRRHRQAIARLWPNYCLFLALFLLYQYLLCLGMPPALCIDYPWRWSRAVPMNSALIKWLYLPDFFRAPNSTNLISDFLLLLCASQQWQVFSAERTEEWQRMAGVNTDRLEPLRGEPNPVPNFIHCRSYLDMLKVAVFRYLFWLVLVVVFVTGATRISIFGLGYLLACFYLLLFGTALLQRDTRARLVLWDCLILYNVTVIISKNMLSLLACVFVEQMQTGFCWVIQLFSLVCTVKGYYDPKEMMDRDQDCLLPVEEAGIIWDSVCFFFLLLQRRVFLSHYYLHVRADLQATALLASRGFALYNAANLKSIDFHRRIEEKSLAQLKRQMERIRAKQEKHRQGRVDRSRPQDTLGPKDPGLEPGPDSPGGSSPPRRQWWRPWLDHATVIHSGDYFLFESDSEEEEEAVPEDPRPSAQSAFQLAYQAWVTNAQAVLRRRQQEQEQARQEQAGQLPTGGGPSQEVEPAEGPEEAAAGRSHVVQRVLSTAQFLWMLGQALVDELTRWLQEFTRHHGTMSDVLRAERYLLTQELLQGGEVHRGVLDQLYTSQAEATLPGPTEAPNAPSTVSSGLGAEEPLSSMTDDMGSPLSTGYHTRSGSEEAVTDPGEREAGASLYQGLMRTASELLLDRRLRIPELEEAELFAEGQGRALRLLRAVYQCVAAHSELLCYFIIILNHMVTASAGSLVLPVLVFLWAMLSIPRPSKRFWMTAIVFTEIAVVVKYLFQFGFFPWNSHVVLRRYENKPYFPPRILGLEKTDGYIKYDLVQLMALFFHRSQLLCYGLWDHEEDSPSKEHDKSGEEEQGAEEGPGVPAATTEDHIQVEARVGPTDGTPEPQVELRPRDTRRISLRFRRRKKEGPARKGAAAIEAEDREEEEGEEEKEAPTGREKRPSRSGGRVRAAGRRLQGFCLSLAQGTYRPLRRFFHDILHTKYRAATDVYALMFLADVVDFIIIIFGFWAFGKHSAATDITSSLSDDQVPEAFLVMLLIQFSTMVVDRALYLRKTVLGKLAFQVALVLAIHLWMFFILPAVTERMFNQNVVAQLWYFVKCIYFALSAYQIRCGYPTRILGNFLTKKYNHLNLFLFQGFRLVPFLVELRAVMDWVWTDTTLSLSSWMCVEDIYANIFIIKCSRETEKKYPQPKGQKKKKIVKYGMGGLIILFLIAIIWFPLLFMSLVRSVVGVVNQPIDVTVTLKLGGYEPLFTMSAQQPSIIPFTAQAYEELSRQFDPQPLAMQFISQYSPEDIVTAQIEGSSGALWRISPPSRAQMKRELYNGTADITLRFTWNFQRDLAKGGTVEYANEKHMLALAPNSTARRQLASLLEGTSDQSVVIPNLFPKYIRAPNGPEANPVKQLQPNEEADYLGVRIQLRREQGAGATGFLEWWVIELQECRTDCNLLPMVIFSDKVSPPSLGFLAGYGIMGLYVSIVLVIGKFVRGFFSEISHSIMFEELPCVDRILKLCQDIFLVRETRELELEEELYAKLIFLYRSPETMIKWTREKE

For `CCN(CC)CCCC(C)Nc1nc(C)cc(Nc2ccc3nc(C)cc(N)c3c2)n1` (racemic) [Rac1 inhibitor], the “stretch-induced ROS production (X-ROS)” value (adult mdx FDB myofibers [1]) was “effective at abrogating X-ROS; also recorded: ameliorated the stretch-induced ROS production”.
For `COC(=O)[C@@H](N)CCCNC(=N)N[N+](=O)[O-]` [L-NAME], the “stretch-induced ROS production (X-ROS)” value (adult mdx FDB myofibers [1]) was “had no effect”.
In the case of `COc1cc(C(C)=O)ccc1O` [apocynin], the “translocation of cytosolic p47phox and p67phox proteins / inactivation of NOX” value (NOX) is listed as “inhibit translocation”, the “eccentric contraction induced force loss” value (adult mdx mice [2]) is listed as “significantly ameliorated the contraction induced force drop; also recorded: significant protection from force loss; also recorded: significantly reduced contraction induced force loss” and the “isometric contraction induced force loss” value (adult mdx mice [3]) is listed as “significant protection from force loss; also recorded: significantly decreased the isometric contraction induced force loss”. For the same molecule, the “eccentric contraction induced force drop in wild-type mice” value (wild-type (WT) mice; WT mice, gastrocnemius, 18 eccentric contractions) was “significantly decreased the eccentric contraction induced force loss”.
With `COc1cc2c(c(OC)c1OC)-c1ccc(OC)c(=O)cc1[C@@H](NC(C)=O)CC2` [colchicine] the cytoskeletal stiffness (wild-type FDB fibers [4]) was “equally effective at decreasing cytoskeletal stiffness”, the “stretch-induced ROS production (X-ROS)” value (adult mdx FDB myofibers [1]) was “prevented the increase in X-ROS; also recorded: little X-ROS; also recorded: ameliorated the stretch-induced ROS production” and the “microtubule density (α-tubulin IHC)” value [5] was “decreased; also recorded: ablated the majority of the cytoskeletal structure”. For the same molecule, the “stretch dependent sarcolemmal Ca2+ influx” value (adult mdx FDB myofibers [6]) was “inhibited; also recorded: prevented; also recorded: little X-ROS and Ca^2+ entry; also recorded: ablated”, the “eccentric contraction induced force loss” value (adult mdx mice [2]) was “significantly ameliorated the contraction induced force drop; also recorded: significant protection from force loss; also recorded: significantly reduced contraction induced force loss” and the “isometric contraction induced force loss” value (adult mdx mice [3]) was “significant protection from force loss; also recorded: significantly decreased the isometric contraction induced force loss”. For the same molecule, the “eccentric contraction induced force drop in wild-type mice” value (wild-type (WT) mice; mouse, in vivo) was “significantly decreased the eccentric contraction induced force loss”.
In the case of `C/C1=C\CC[C@@]2(C)O[C@@H]2[C@H]2OC(=O)[C@H](CN(C)C)[C@@H]2CC1` [dimethylaminoparthenolide], the “eccentric contraction induced force drop (FIG. 13)” value (adult mdx mice [2]) is reported as “ameliorated the force drop”, the “eccentric contraction induced force drop (FIG. 13)” value (adult mdx mice [2]; listed as LC-1) is reported as “reduced eccentric contraction induced force drop” and the “isometric contraction induced force loss” value (adult mdx mice [3]) is reported as “significantly decreased the isometric contraction induced force loss”.
In the case of `C/C1=C/C(=O)O[C@@H]2C[C@@H](CC[C@H](C)/C=C\C=C\CC1)O[C@@](O)([C@@H]1CSC(=O)N1)C2` [latrunculin A], the “stretch-induced ROS production (X-ROS)” value (adult mdx FDB myofibers [1]) is reported as “had no effect” and the “stretch-induced ROS production (X-ROS)” value (adult mdx FDB myofibers [1]; listed as latrunuculin A) is reported as “no significant effect”.
For `CC(=O)O[C@H]1C(=O)[C@@]2(C)[C@H]([C@H](OC(=O)c3ccccc3)[C@]3(O)C[C@H](OC(=O)[C@H](O)[C@@H](NC(=O)c4ccccc4)c4ccccc4)C(C)=C1C3(C)C)[C@]1(OC(C)=O)CO[C@@H]1C[C@@H]2O` [taxol], the “X-ROS in young fibers” value [7] was “exuberant X-ROS; also recorded: made X-ROS competent”, the “microtubule density (α-tubulin IHC)” value [5] was “increased” and the “Ca2+ entry in young fibers” value (young WT muscle cells) was “exuberant X-ROS and Ca^2+ entry”.
For “Angiotensin II: angiotensin II, increases microtubule density”, the microtubule subunit content (C2C12 myotubes) was “increased microtubule subunit content”, the “microtubule density in isolated FDB myofibers” value [5] was “increases microtubule density” and the “microtubule density in isolated FDB myofibers” value ([5]; listed as angiotensin II) was “densified the microtubule network”.
For “GsMTx4: mechano-sensitive (stretch activated) channel blocker (GCLEFWWKCNPNDDKCCRPKLKCSKLFKLCNFSF; ends and bridges not checked; cysteine pairing not given here; UniProt Q7YT39 47-80, looked up)”, the “stretch activated calcium influx” value (wild-type FDB fibers [8]) is given as “significantly reduced stretch activated Ca^2+ influx”, the “inhibition of Piezo2 channel” value (Piezo2) is given as “inhibited” and the “stretch dependent sarcolemmal Ca2+ influx” value (adult mdx FDB myofibers [6]) is given as “inhibited; also recorded: prevented; also recorded: ablated”. The “inhibition of Piezo1 channel” value (Piezo1) was “inhibited”.
In the case of fulvene-5, the “stretch-induced ROS production (X-ROS)” value (adult mdx FDB myofibers [1]) is reported as “verified NOX2 as the source of the stretch dependent ROS” and the “stretch-induced ROS production (X-ROS)” value (adult mdx FDB myofibers [1]; listed as Fulvene 5) is reported as “effective at abrogating X-ROS”.
